In test [1] the target is T1, CcrA (Bacteroides fragilis, UniProt P25910). As to the kind of experiment: 1H, […] HSQC NMR titration, chemical shift perturbation, fast exchange. The test is classed as binding.
The target of test [2] is T1, CcrA. As to the kind of experiment: 1H, […] HSQC NMR titration, slow exchange (relative peak intensities). The test is classed as binding.

T1 sequence (P25910 19-249): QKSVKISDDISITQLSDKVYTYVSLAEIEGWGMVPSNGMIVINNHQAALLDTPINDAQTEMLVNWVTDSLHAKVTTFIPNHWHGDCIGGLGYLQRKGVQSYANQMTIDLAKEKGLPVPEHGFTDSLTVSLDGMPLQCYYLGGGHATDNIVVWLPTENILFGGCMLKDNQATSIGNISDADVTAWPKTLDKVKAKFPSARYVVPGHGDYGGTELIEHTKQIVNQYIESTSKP

In the case of `O=C(CSc1nnc(-c2ccccc2C(=O)O)[nH]1)Nc1nc2ccccc2s1` [compound 4, 4], the Kd at CcrA [1] came out at 11 ± 11 µM. `O=C(CSc1nnc(-c2ccccc2C(=O)O)[nH]1)Nc1ccccc1` [compound 5, 5]: the Kd on CcrA [1] was 34 ± 43 µM.

Take `O=C(CSc1nnc(-c2ccccc2C(=O)O)[nH]1)Nc1ccc(Cl)cc1` [compound 6, 6]: the Kd at CcrA [2] is roughly 2.3 µM.

As a reminder, the Kd is a measure of binding affinity in units of concentration.

Values taken from publication PMC7469393, “Binding of 2-(Triazolylthio)acetamides to Metallo-β-lactamase CcrA Determined with NMR” (ACS Omega, 2020).
